In ChEMBL document CHEMBL4417636, “Small molecule inhibitors of pendrin ion exchange and pharmaceutical compositions” (2017):
Active and inactive are the calls of the source. No cut-off for these calls is given here.

Experiments:
Mus musculus = assay: Potentiation of 20 mg/kg, ip furosemide-induced acute diuretic action in CD1 mouse assessed as effect on urine pH at 50 mg/kg, ip relative to control; assay type: functional, organism-based
[1] = molecular target: T1, Chloride anion exchanger (Homo sapiens) (UniProt P40879); assay: Inhibition of human SLC26A3 expressed in COS7 co-expressing EYFP-HIF assessed as reduction in SCN gradient
T1 sequence (whole entry): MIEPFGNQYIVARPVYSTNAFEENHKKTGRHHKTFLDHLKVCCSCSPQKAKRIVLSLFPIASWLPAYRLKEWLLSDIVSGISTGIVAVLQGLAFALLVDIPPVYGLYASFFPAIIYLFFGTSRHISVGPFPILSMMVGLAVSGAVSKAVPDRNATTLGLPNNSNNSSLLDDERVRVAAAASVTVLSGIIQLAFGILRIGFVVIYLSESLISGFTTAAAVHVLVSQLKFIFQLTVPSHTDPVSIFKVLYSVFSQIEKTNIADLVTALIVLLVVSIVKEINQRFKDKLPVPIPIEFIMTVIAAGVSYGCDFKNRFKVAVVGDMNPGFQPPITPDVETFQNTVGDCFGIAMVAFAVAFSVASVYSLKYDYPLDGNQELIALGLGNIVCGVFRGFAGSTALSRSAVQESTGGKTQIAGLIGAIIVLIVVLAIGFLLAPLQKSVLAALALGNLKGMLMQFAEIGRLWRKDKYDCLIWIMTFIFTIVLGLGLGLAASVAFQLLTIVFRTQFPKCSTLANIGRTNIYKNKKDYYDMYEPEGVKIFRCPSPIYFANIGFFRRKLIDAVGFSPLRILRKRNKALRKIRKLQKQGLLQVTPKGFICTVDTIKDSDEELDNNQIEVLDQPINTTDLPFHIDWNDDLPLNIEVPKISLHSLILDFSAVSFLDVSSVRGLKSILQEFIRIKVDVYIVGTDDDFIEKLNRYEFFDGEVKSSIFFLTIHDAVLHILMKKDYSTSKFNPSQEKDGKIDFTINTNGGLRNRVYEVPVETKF

[2] = molecular target: T2, Solute carrier family 12 member 2 (Homo sapiens) (UniProt P55011); assay: Inhibition of NKCC1 in human bronchial epithelial cells assessed as effect on short-circuit current at 25 uM pre-incubated for 30 mins
T2 sequence (whole entry): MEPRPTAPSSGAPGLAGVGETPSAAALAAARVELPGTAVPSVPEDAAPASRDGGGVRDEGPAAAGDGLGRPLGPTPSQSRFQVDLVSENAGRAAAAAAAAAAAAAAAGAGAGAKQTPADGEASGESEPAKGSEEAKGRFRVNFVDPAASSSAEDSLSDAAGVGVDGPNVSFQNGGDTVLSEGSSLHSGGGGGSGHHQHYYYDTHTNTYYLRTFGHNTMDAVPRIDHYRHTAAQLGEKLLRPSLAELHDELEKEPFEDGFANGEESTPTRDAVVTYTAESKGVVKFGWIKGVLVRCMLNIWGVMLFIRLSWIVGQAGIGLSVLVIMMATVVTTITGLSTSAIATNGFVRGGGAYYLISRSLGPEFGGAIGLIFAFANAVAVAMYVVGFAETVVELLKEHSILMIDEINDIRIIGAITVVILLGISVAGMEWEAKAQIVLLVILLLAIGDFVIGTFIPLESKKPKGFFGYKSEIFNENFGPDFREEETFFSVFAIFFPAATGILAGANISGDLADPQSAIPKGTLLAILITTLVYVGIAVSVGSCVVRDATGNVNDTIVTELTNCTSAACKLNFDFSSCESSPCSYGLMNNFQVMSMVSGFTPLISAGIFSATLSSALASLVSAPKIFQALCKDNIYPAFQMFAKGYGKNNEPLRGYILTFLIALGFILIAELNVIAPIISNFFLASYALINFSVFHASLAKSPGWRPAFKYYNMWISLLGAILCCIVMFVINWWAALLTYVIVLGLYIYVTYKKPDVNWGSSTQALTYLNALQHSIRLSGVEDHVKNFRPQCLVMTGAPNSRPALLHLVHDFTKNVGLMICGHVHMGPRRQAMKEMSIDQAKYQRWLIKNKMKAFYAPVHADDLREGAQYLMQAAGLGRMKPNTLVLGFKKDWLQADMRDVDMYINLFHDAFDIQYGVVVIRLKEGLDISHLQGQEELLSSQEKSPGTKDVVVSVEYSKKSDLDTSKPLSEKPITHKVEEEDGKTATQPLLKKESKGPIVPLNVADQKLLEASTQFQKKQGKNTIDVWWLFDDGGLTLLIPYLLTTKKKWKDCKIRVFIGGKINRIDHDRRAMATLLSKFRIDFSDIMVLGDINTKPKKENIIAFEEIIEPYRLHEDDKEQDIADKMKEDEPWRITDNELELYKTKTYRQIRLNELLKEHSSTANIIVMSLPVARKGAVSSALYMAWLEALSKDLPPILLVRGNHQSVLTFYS

Pendrin (Homo sapiens) [3] = molecular target: T3, Pendrin (Homo sapiens) (UniProt O43511); assay: Inhibition of human pendrin expressed in FRT cells co-expressing EYFP-HIF assessed as reduction in pendrin-mediated C17HCO3(-) exchange by measuring reduction in cytoplasmic alkalinization exchange at 2.5 uM by pH-sensitive fluorescent probe BCECF-AM based fluorescence assay relative to control; assay type: cell-based
T3 sequence (whole entry): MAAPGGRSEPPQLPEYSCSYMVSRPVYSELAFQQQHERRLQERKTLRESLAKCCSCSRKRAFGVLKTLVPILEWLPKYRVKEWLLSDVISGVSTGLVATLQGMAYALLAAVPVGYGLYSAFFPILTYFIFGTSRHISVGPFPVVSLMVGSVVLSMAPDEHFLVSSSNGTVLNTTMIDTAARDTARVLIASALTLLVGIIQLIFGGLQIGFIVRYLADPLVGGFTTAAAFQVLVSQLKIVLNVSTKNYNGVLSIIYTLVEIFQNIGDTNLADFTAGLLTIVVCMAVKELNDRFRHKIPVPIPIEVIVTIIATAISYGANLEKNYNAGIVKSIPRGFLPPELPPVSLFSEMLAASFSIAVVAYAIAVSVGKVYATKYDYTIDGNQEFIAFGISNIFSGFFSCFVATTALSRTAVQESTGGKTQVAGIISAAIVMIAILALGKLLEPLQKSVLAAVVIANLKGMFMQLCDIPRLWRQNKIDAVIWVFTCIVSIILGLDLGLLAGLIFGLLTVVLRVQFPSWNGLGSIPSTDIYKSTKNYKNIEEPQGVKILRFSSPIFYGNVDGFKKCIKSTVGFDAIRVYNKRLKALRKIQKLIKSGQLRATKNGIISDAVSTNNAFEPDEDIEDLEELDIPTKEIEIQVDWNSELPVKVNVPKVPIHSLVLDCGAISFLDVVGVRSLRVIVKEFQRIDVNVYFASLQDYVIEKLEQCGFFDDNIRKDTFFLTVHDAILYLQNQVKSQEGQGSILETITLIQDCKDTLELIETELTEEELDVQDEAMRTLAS

Pendrin (Homo sapiens) [4] = molecular target: T3, Pendrin (Homo sapiens); assay: Inhibition of pendrin in human bronchial CFBE assessed as increase in airway surface liquid depth at 25 uM by rhodamine B-dextran fluorescence based confocal microscopy (reference value: -16 um)

Row | inhibition [1] | inhibition [2] | inhibition (Pendrin (Homo sapiens) [3]) | Activity (Pendrin (Homo sapiens) [4]) | Structure (SMILES) | Activity (Mus musculus)
1 |  |  |  |  | Cc1n[nH]c(-c2cc(S(=O)(=O)NC3CCCc4ccccc43)c(C)s2)c1C (stereo not given) | inactive
2 | inactive | inactive | 50% | -8 µm | Cn1nc(COc2cccc(F)c2)c2c1CCN(C(=O)Nc1ccc(Cl)cc1)C2 | 
